Results published in US7083809B2, “Purified cytokine inhibitory factor” (Arkion Life Sciences, LLC, priority 2002, dated 2006).

How the values were obtained:
[1] = system: PGE2 biosynthesis; test: Inhibition of PGE2 biosynthesis in LPS-stimulated RAW 264.7 cells (EIA); assay type: cell-based, mouse
Procedure: The assay began with overnight induction of COX-2 through mitogenic (LPS) stimulation of RAW 264.7 cell monolayers. The cell monolayers were then exposed to a test article (e.g. indomethacin) for 30 min at 37° C., and then an exogenous source of arachidonic acid was provided to the system. COX1 and COX2 (in addition to a PGE2 specific synthetase) converted the exogenous arachidonic acid to PGE2. Prostaglandin E2 in the culture medium was then quantified by a commercial EIA system. When less PGE2 was recovered from culture medium containing a test article than was recovered from culture medium alone, the condition was labeled inhibition.
Assay procedure: 5×10^6 Cells in DMEM medium were seeded and incubated in a 37° C., 5% CO2 incubator overnight. At approximately 24 h growth of cells seeded on day 1 (usually 90–100% confluence), growth medium was aseptically decanted and discarded. 10 ml sterile PBSA was gently pipetted into flasks against a non-growth surface, and the cells were washed twice. 10 ml DMEM containing LPS (2 ng/ml) was added to the tested flasks. Flasks were placed in a 37° C., 5% CO2 incubator overnight for 16 h.
At 16 h post-initial LPS exposure, growth medium was aseptically removed (suction) and discarded. 10 ml sterile PBSA was gently pipetted into flasks against a non-growth surface, and the cells were washed twice. Cells were incubated in the presence of 2 ml PBSA, 2 ml positive control drugs, or 2 ml yolk lipids sample (1.0 mg/ml) at 37° C. After 30 min incubation, 222 μl of 300 ΞM arachidonic acid was added to every flask. Cells were incubated for an additional 15 min at 37° C. in presence of the 30 μM arachidonic acid. After the 15 min incubation, 50 μl of 1 mg/ml indomethacin was added to contents of flask to stop the reaction. All fluids from flasks were collected into appropriately labeled polypropylene tubes.
Prostaglandin E2 was assayed with the commercial ELISA kit (Amersham RPN222) at room temperature following the standard protocol.

[2] = 20 cancer patients, intravenous pretreatment followed by intravenous endotoxin; cited from earlier work
[3] = system: murine macrophage; conditions: cited from earlier work
[4] = system: TNF-α; test: LPS-induced cytokine mRNA inhibition assay in THP1 monocytes (RT-PCR); assay type: cell-based, human; conditions: THP1 cells, culture medium
[5] = system: IL-1β; test: as above; assay type: cell-based, human; conditions: THP1 cells

For `COc1ccc2c(c1)c(CC(=O)O)c(C)n2C(=O)c1ccc(Cl)cc1` [indomethacin], the “Inhibition of PGE2 biosynthesis in cells (in words)” value (“Inhibition of PGE2 biosynthesis” below) [1] was “inhibited”.
In the case of `CCCCCCCCCCC[C@@H](O)CC(=O)N[C@H]1[C@@H](OP(=O)(O)O)O[C@H](CO)[C@@H](OC(=O)C[C@H](O)CCCCCCCCCCC)[C@@H]1OC(=O)C[C@H](O)CCCCCCCCCCC` [SDZ MRL 953], the “Release of TNF-α, IL-1β, IL-8, IL-6, and G-CSF” value [2] is listed as “markedly reduced”.
For `CCCCCCCCCCCCCC(=O)N[C@H]1[C@H](OC[C@H]2O[C@H](OC(CC(=O)O)CC(=O)O)[C@H](NC(=O)CCCCCCCCCCCCC)[C@@H](OC(=O)CNC(=O)CCCCCCCCCCC)[C@@H]2O)O[C@H](CO)[C@@H](OP(=O)(O)O)[C@@H]1OC(=O)CNC(=O)CCCCCCCCCCC` [DT-5461a], the “Induction of TNF-α, IL-1β, IL-6, and GM-CSF” value [3] is listed as “induces”.
With lipopolysaccharide [LPS] the “LPS concentration of maximum induction for TNFa” value [4] was “around 0.2 mg/ml” and the “LPS concentration able to induce IL-1b” value [5] was 0.008 mg/mL.
For `CC(C)Cc1ccc(C(C)C(=O)O)cc1` (stereo not shown) [ibuprofen], the “Inhibition of PGE2 biosynthesis” value [1] was “inhibited”.
With `CC(=O)Oc1ccccc1C(=O)O` [aspirin] the “Inhibition of PGE2 biosynthesis” value [1] was “inhibited”.
